The values below come from PubChem BioAssay AID1199 (EPA DSSTox, 2008).

The source made the active and inactive calls.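 The calls were made as follows: active = a tumour-causing dose and a tumour site recorded for mice in at least one sex group; inconclusive = only government mouse studies exist and were judged inadequate; inactive = mouse studies exist but none gave tumours.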

This series relates to mouse carcinogenicity bioassay, TD50 from CPDB. The experiment in a line: DSSTox (CPDBAS) Carcinogenic Potency Database Summary Mouse Bioassay Results. The method, boiled down:
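Chronic long-term mouse cancer bioassays from literature and NCI/NTP, compiled per sex. TD50 is the standardized carcinogenic potency, using the most positive experiment per sex-species; target sites follow author opinion.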

Where [1] appears, read: TD50_Mouse_Note: no positive results, TargetSites_Mouse_Female: no positive results.
[2] abbreviates: TargetSites_Mouse_Female: liver.
[3] abbreviates: TD50_Mouse_Note: TD50 is harmonic mean of more than one positive test, TargetSites_Mouse_Female: lung.
The mark [4] stands for this setting: TargetSites_Mouse_Female: no positive results.
[5] abbreviates: TD50_Mouse_Note: TD50 is harmonic mean of more than one positive test, greater than ten-fold variation among TD50 values for positive res, TargetSites_Mouse_Female: liver.
Where [6] appears, read: TargetSites_Mouse_BothSexes: no positive results.
The mark [7] stands for this setting: TD50_Mouse_Note: TD50 is harmonic mean of more than one positive test, TargetSites_Mouse_Female: liver.
The mark [8] stands for this setting: TD50_Mouse_Note: TD50 is harmonic mean of more than one positive test, harmonic mean of TD50 includes a value for upper 99% confidence li, TargetSites_Mouse_Female: liver.

Regarding `CN(C)C(=S)[S][Pb][S]C(=S)N(C)C`, the outcome under setting [1] was “inactive; no positive results”.
As for `OO`, the Potency (TargetSites_Mouse_Female: small intestine) was 222 mmol/kg/day.
In the case of `NC1CCCCC1`, under setting [1], the outcome was “inactive; no positive results”.
Turning to `CCCC[C@H](C)[C@@H](OC(=O)C[C@H](CC(=O)O)C(=O)O)[C@@H](C[C@H](C)C[C@@H](O)CCCC[C@@H](O)C[C@H](O)[C@H](C)N)OC(=O)C[C@H](CC(=O)O)C(=O)O`, the Potency under setting [2] was 0.00941 mmol/kg/day.
Consider `CC(C)CCC[C@@H](C)[C@H]1CC[C@H]2[C@@H]3CC=C4C[C@@H](OC(=O)Cc5ccc(N(CCCl)CCCl)cc5)CC[C@]4(C)[C@H]3CC[C@]12C`, for which the Potency (TD50_Mouse_Note: TD50 is harmonic mean of more than one positive test, TargetSites_Mouse_Female: hematopoietic system, lung, myocardium) is 0.000955 mmol/kg/day.
In the case of `S=C(S)NCCNC(=S)S`, the outcome under setting [1] was “inactive; no positive results”.
For `Oc1ccccc1O`, the Potency (TD50_Mouse_Note: TD50 is harmonic mean of more than one positive test, TargetSites_Mouse_Female: stomach) was 2.22 mmol/kg/day.
Regarding `NC(=S)NNC(N)=S`, under setting [1], the outcome is “inactive; no positive results”.
In the case of `C=CC(OC(C)=O)c1ccc2c(c1)OCO2` (centres undefined), under “TD50_Mouse_Note: no positive results”, the outcome is “inactive; no positive results”.
For the compound `CC/C=C(/CC)[N+](=O)[O-]`, the Potency (TargetSites_Mouse_BothSexes: lung) is 0.00268 mmol/kg/day.
In the case of `COc1cc2c(c3c1c(=O)c1ccccc1n3C)C=CC(C)(C)O2`, the outcome (TD50_Mouse_Note: only experiment is NCI/NTP bioassay inadequate, TargetSites_Mouse_Female: NTP bioassay inadequate) is recorded as “ntp bioassay inadequate”.
Take `CCN(CC)C(=S)S[Te](SC(=S)N(CC)CC)(SC(=S)N(CC)CC)SC(=S)N(CC)CC`: under setting [1], the outcome is “inactive; no positive results”.
Consider `O=CNNC=O`, for which the Potency under setting [3] was 7.59 mmol/kg/day.
Turning to `Nc1nc(-c2ccc([N+](=O)[O-])o2)cs1`, the Potency (TargetSites_Mouse_Female: stomach) was 0.0373 mmol/kg/day.
Consider `C[N+](=O)[O-]`, for which, under “TD50_Mouse_Note: TD50 is harmonic mean of more than one positive test, TargetSites_Mouse_Female: harderian gland, liver, lung”, the Potency was 7.68 mmol/kg/day.
As to `Cc1cc(C(C)(C)C)c(O)c(C(C)(C)C)c1`, the Potency (TD50_Mouse_Note: TD50 is harmonic mean of more than one positive test, TargetSites_Mouse_Female: no positive results) is 2.96 mmol/kg/day.
In the case of `Cc1cccc(C)c1NC(=O)CN1CCCC1=O`, under setting [1], the outcome is “inactive; no positive results”.
Turning to `CCCCC(CC)COP(=O)(OCC(CC)CCCC)OCC(CC)CCCC` (centres undefined), the Potency under setting [2] was 5.89 mmol/kg/day.
For the compound `COc1nn(CSP(=S)(OC)OC)c(=O)s1`, under setting [4], the Potency is 0.02 mmol/kg/day.
In the case of `Oc1ccc(O)cc1`, under setting [5], the Potency is 2.04 mmol/kg/day.
With `NC(=O)/C(=C\c1ccc([N+](=O)[O-])o1)c1ccco1`, the Potency (TD50_Mouse_Note: TD50 is harmonic mean of more than one positive test, greater than ten-fold variation among TD50 values for positive res, TargetSites_Mouse_Female: stomach) is 0.528 mmol/kg/day.
With `COc1cc(NC(=O)C(N=Nc2ccc(-c3ccc(N=NC(C(C)=O)C(=O)Nc4cc(OC)c(Cl)cc4OC)c(Cl)c3)cc2Cl)C(C)=O)c(OC)cc1Cl` (centres undefined), the outcome under setting [6] was inactive.
In the case of `C=CC(O)c1ccc(OC)cc1` (centres undefined), the Potency under setting [2] is 0.352 mmol/kg/day.
Take `c1ccc2c(c1)ccc1cc3c(ccc4ccccc43)cc12`: the Potency was 0.0211 mmol/kg/day.
On to `O1[As]2O[As]3O[As]1O[As](O2)O3`, for which the outcome under setting [1] is “inactive; no positive results”.
Regarding `C=C1C(CCl)(CCl)C2(Cl)C(Cl)C(Cl)C1(Cl)C2(Cl)Cl` (centres undefined), the outcome (TD50_Mouse_Note: TD50 is harmonic mean of more than one positive test, TD50_Mouse_mmol was not calculated for this mixture, but Activiity, TargetSites_Mouse_Female: liver) was “active; liver”.
With `Nc1ccc(O)c([N+](=O)[O-])c1`, the outcome under setting [1] is “inactive; no positive results”.
As to `COc1ccc(N)cc1N`, the Potency (TD50_Mouse_Note: TD50 is harmonic mean of more than one positive test, TargetSites_Mouse_Female: thyroid gland) is 3.83 mmol/kg/day.
Regarding `CCCCN(N)CCCC`, for the setting “TD50_Mouse_Note: TD50 is harmonic mean of more than one positive test, TargetSites_Mouse_Female: lung, stomach”, the Potency is 0.313 mmol/kg/day.
As for `CN(C)CCC(c1ccc(Cl)cc1)c1ccccn1` (centres undefined), the outcome under setting [1] was “inactive; no positive results”.
As to `CN(C)N=O`, where the note is “TD50_Mouse_Note: TD50 is harmonic mean of more than one positive test, TargetSites_Mouse_Female: lung, nervous system”, the Potency is 0.00255 mmol/kg/day.
Turning to `O=C1NCCN1`, the outcome under setting [1] was “inactive; no positive results”.
As for `ClCC(Cl)(Cl)Cl`, under setting [7], the Potency is 1.08 mmol/kg/day.
On to `Cc1ccc([N+](=O)[O-])cc1`, for which the outcome under setting [1] was “inactive; no positive results”.
The same measure, in the same setting: to `C=CCc1ccc(O)c(OC)c1` belongs “inactive; no positive results”.
`CNN`: the Potency (TD50_Mouse_Note: TD50 is harmonic mean of more than one positive test, TargetSites_Mouse_Female: liver, lung) was 0.164 mmol/kg/day and the Potency under setting [3] is 0.0189 mmol/kg/day.
With `O=C1c2ccccc2CN2C(=O)c3ccccc3CN12`, the Potency (TD50_Mouse_Note: TD50 is harmonic mean of more than one positive test, TargetSites_Mouse_Female: liver, vascular system) was 3.27 mmol/kg/day.
For `CCCc1ccc2c(c1)OCO2`, the Potency under setting [3] is 0.761 mmol/kg/day.
Regarding `Cc1ccccc1OCC(O)CNCCn1cc(C)c(=O)[nH]c1=O` (centres undefined), the outcome under setting [1] was “inactive; no positive results”.
Take `c1ccccc1`: the Potency (TD50_Mouse_Note: TD50 is harmonic mean of more than one positive test, greater than ten-fold variation among TD50 values for positive res, TargetSites_Mouse_Female: ear Zymbals gland, hematopoietic system, lung, mammary gland, ovary) was 0.992 mmol/kg/day.
Turning to `C=C(C)[C@H]1CC=C(C)C(=O)C1`, under setting [1], the outcome is “inactive; no positive results”.
On the same count and under the same terms, with `CCN(Cc1cccc(S(=O)(=O)O)c1)c1ccc(C(=C2C=CC(=[N+](CC)Cc3cccc(S(=O)(=O)[O-])c3)C=C2)c2ccc(S(=O)(=O)O)cc2)cc1` the entry was “inactive; no positive results”.
Take `Cc1c(COC(=O)C2C(/C=C(\Cl)C(F)(F)F)C2(C)C)cccc1-c1ccccc1` (centres undefined): the outcome under setting [1] is “inactive; no positive results”.
For `CCCCCCC(=O)/C=C/CCCCCCCCC(=O)OC`, under setting [6], the result was inactive.
Take `CN1[C@@H]2CC(OC(=O)[C@@H](CO)c3ccccc3)C[C@H]1[C@@H]1O[C@@H]12` (some centres undefined): the outcome under setting [1] is “inactive; no positive results”.
The same measure, in the same setting: to `O=C1OC(=O)c2ccccc21` belongs “inactive; no positive results”; to `COP(=S)(OC)SCn1nnc2ccccc2c1=O`, “inactive; no positive results”.
The same measure, in the same setting: with `CC1=C(C(=O)OCCN(Cc2ccccc2)c2ccccc2)C(c2cccc([N+](=O)[O-])c2)C(P2(=O)OCC(C)(C)CO2)=C(C)N1` (centres undefined) the entry was “inactive; no positive results”.
Consider `Nc1ccc2oc3ccccc3c2c1`, for which the Potency under setting [8] is 0.0231 mmol/kg/day.
`C=CC1CC=CCC1` (centres undefined): for the setting “TargetSites_Mouse_Female: ovary”, the Potency is 0.98 mmol/kg/day.
On to `CN(C)C(=S)SC(=S)N(C)C`, for which the outcome under setting [1] was “inactive; no positive results”.
As for `CC(N)=S`, the Potency under setting [8] is 0.117 mmol/kg/day.
Take `Cc1cc(-c2ccc(N)c(C)c2)ccc1N`: under setting [4], the Potency was 0.1 mmol/kg/day.
Regarding `FC(F)(Cl)Cl`, the outcome under setting [1] is “inactive; no positive results”.
Turning to `CCOC(=O)C(O)(c1ccc(Cl)cc1)c1ccc(Cl)cc1`, the Potency under setting [5] is 0.289 mmol/kg/day.
`COc1c(Cl)c(Cl)c([N+](=O)[O-])c(Cl)c1Cl`: the outcome under setting [1] is “inactive; no positive results”.
On the same count and under the same terms, to `O=C1C(Cl)=C(Cl)C(=O)c2ccccc21` belongs “inactive; no positive results”.
The same measure, in the same setting: to `COc1c2occc2cc2ccc(=O)oc12` belongs “inactive; no positive results”; to `CN(C)C(=S)S[Se](SC(=S)N(C)C)(SC(=S)N(C)C)SC(=S)N(C)C`, “inactive; no positive results”; to `Nc1ccc(Nc2ccccc2)cc1`, “inactive; no positive results”.
In the case of `CN(C)c1ccc(C(=O)c2ccc(N(C)C)cc2)cc1`, under setting [7], the Potency was 0.313 mmol/kg/day.
Take `CNCCC(Oc1ccc(C(F)(F)F)cc1)c1ccccc1` (centres undefined): the outcome under setting [1] is “inactive; no positive results”.
Still for that read-out and setting: with `CCCCN(CCCC)C(=S)[S-].CCCCN(CCCC)C(=S)[S-].[Ni+2]` the entry was “inactive; no positive results”; with `C=C(C)C`, “inactive; no positive results”.
Regarding `CO[C@H]1/C=C/O[C@@]2(C)Oc3c(C)c(O)c4c(O)c(c(/C=N/N5CCN(C)CC5)c(O)c4c3C2=O)NC(=O)/C(C)=C\C=C\[C@H](C)[C@H](O)[C@@H](C)[C@@H](O)[C@@H](C)[C@H](OC(C)=O)[C@@H]1C`, the Potency under setting [2] was 0.0408 mmol/kg/day.
With `CCN=c1cc2oc3cc(NCC)c(C)cc3c(-c3ccccc3C(=O)OCC)c-2cc1C`, the outcome under setting [1] was “inactive; no positive results”.
For `COC(=O)C1=CCCN(C)C1`, the Potency (TD50_Mouse_Note: TD50 is harmonic mean of more than one positive test, TargetSites_Mouse_Female: lung, vascular system) is 0.206 mmol/kg/day.
Consider `Nc1cc(Cl)c(-c2cc(Cl)c(N)cc2Cl)cc1Cl`, for which the result under setting [1] was inactive.
Same read-out and setting: to `Cl[C@H]1OCCO[C@@H]1Cl` belongs “inactive”; to `C[N+](C)(C)CCCl`, “inactive; no positive results”; to `CC1CCC(C(C)C)C(O)C1` (centres undefined), “inactive; no positive results”.
Consider `CCCN(CCC)S(=O)(=O)c1ccc(C(=O)O)cc1`, for which the Potency under setting [2] is 1.89 mmol/kg/day.
On to `[Cl-].[Cl-].[Sn+2]`, for which the outcome under setting [1] is “inactive; no positive results”.
